System: 885724-159-R-J1-PDC complex spheroid viability
Assay: Anticancer human tumor 885724-159-R-J1-PDC patient-derived pancreatic adenocarcinoma cell line growth inhibition [GQUAD]
Conditions: for IC50: curve of first compound; for viability, T/C: stronger effect = lower value
How it was run: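 Tumor cells were grown as complex spheroids with HUVEC endothelial cells and mesenchymal stem cells as stroma. G-quadruplex stabilizers were combined with targeted agents over half-log dilutions from near the clinical Cmax, or from 10 microM.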

[1] = second compound 0.0316 µM, first compound 0.0316 µM
[2] = second compound 0.0316 µM, first compound 0.1 µM
[3] = second compound 0.0316 µM, first compound 0.316 µM
[4] = second compound 0.0316 µM, first compound 1 µM
[5] = second compound 0.0316 µM, first compound 3.16 µM
[6] = second compound 0.0316 µM, first compound 10 µM
[7] = second compound 0.1 µM, first compound 0.0316 µM
[8] = second compound 0.1 µM, first compound 0.1 µM
[9] = second compound 0.1 µM, first compound 0.316 µM
[10] = second compound 0.1 µM, first compound 1 µM
[11] = second compound 0.1 µM, first compound 3.16 µM
[12] = second compound 0.1 µM, first compound 10 µM
[13] = second compound 0.316 µM, first compound 0.0316 µM
[14] = second compound 0.316 µM, first compound 0.1 µM
[15] = second compound 0.316 µM, first compound 0.316 µM
[16] = second compound 0.316 µM, first compound 1 µM
[17] = second compound 0.316 µM, first compound 3.16 µM
[18] = second compound 0.316 µM, first compound 10 µM
[19] = second compound 1 µM, first compound 0.0316 µM
[20] = second compound 1 µM, first compound 0.1 µM
[21] = second compound 1 µM, first compound 0.316 µM
[22] = second compound 1 µM, first compound 1 µM
[23] = second compound 1 µM, first compound 3.16 µM
[24] = second compound 1 µM, first compound 10 µM
[25] = second compound 3.16 µM, first compound 0.0316 µM
[26] = second compound 3.16 µM, first compound 0.1 µM
[27] = second compound 3.16 µM, first compound 0.316 µM
[28] = second compound 3.16 µM, first compound 1 µM
[29] = second compound 3.16 µM, first compound 3.16 µM
[30] = second compound 3.16 µM, first compound 10 µM
[31] = second compound 10 µM, first compound 0.0316 µM
[32] = second compound 10 µM, first compound 0.1 µM
[33] = second compound 10 µM, first compound 0.316 µM
[34] = second compound 10 µM, first compound 1 µM
[35] = second compound 10 µM, first compound 3.16 µM
[36] = second compound 10 µM, first compound 10 µM
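Further: spheroids exposed to agents for seven days before readout.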
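Wherever viability, T/C is given: percent of vehicle control viability where 100% = DMSO wells.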

## CC1COCCN1c1cc(C2(O)CC3CCC(C2)O3)c2cnn(-c3ccn[nH]3)c2n1 (stereo not given) + Cc1cnc(CNC(=O)c2c(=O)c3ccc(N4CCCN(C)CC4)nc3n3c2sc2ccccc23)cn1
Second compound 0.0316 µM
  IC50: 1.12 µM
Second compound 0.1 µM
  IC50: 1.14 µM
Second compound 0.316 µM
  IC50: 0.986 µM
Second compound 1 µM
  IC50: 0.293 µM
Second compound 3.16 µM
  IC50: 0.184 µM
Second compound 10 µM
  IC50: 0.196 µM
[1]
  viability, T/C: 96.9%
[2]
  viability, T/C: 71%
[3]
  viability, T/C: 63.3%
[4]
  viability, T/C: 52.9%
[5]
  viability, T/C: 42.7%
[6]
  viability, T/C: 30.8%
[7]
  viability, T/C: 91.1%
[8]
  viability, T/C: 83.7%
[9]
  viability, T/C: 68.3%
[10]
  viability, T/C: 51.4%
[11]
  viability, T/C: 37.8%
[12]
  viability, T/C: 27.9%
[13]
  viability, T/C: 83.8%
[14]
  viability, T/C: 81.5%
[15]
  viability, T/C: 68.5%
[16]
  viability, T/C: 48%
[17]
  viability, T/C: 35%
[18]
  viability, T/C: 22.4%
[19]
  viability, T/C: 79.7%
[20]
  viability, T/C: 59.3%
[21]
  viability, T/C: 48.7%
[22]
  viability, T/C: 39.1%
[23]
  viability, T/C: 27.5%
[24]
  viability, T/C: 17.9%
[25]
  viability, T/C: 72.1%
[26]
  viability, T/C: 56.5%
[27]
  viability, T/C: 43.8%
[28]
  viability, T/C: 32.4%
[29]
  viability, T/C: 19%
[30]
  viability, T/C: 13.8%
[31]
  viability, T/C: 61.5%
[32]
  viability, T/C: 59.2%
[33]
  viability, T/C: 43.4%
[34]
  viability, T/C: 30.1%
[35]
  viability, T/C: 19.1%
[36]
  viability, T/C: 12.4%

## O=c1[nH]cc(F)c(=O)[nH]1 + Cc1[nH]c2ccc(F)cc2c1-c1nc2c3cccnc3c3ncccc3c2[nH]1
Second compound 0.0316 µM
  IC50: > 10 µM
Second compound 0.1 µM
  IC50: > 10 µM
Second compound 0.316 µM
  IC50: > 10 µM
Second compound 1 µM
  IC50: > 10 µM
Second compound 3.16 µM
  IC50: < 0.0316 µM
Second compound 10 µM
  IC50: > 10 µM
[1]
  viability, T/C: 101%
[2]
  viability, T/C: 103%
[3]
  viability, T/C: 98.5%
[4]
  viability, T/C: 95.9%
[5]
  viability, T/C: 97.1%
[6]
  viability, T/C: 86%
[7]
  viability, T/C: 103%
[8]
  viability, T/C: 89.3%
[9]
  viability, T/C: 91%
[10]
  viability, T/C: 93.5%
[11]
  viability, T/C: 93.7%
[12]
  viability, T/C: 86.3%
[13]
  viability, T/C: 107%
[14]
  viability, T/C: 94.7%
[15]
  viability, T/C: 81.6%
[16]
  viability, T/C: 82%
[17]
  viability, T/C: 97.5%
[18]
  viability, T/C: 95.6%
[19]
  viability, T/C: 76.4%
[20]
  viability, T/C: 74.7%
[21]
  viability, T/C: 75%
[22]
  viability, T/C: 70.7%
[23]
  viability, T/C: 68.3%
[24]
  viability, T/C: 69.9%
[25]
  viability, T/C: 39.2%
[26]
  viability, T/C: 42.6%
[27]
  viability, T/C: 41.3%
[28]
  viability, T/C: 41.6%
[29]
  viability, T/C: 45.1%
[30]
  viability, T/C: 42.3%
[31]
  viability, T/C: 66.1%
[32]
  viability, T/C: 77.2%
[33]
  viability, T/C: 70.3%
[34]
  viability, T/C: 71.3%
[35]
  viability, T/C: 81.3%
[36]
  viability, T/C: 62.9%

## COc1ncnc(C2CC2)c1-c1ncc2cnn(Cc3ccc(-c4nc(C(F)(F)F)cn4C(C)C)cc3)c2n1 + Cc1cnc(CNC(=O)c2c(=O)c3ccc(N4CCCN(C)CC4)nc3n3c2sc2ccccc23)cn1
Second compound 0.0316 µM
  IC50: > 10 µM
Second compound 0.1 µM
  IC50: > 10 µM
Second compound 0.316 µM
  IC50: > 10 µM
Second compound 1 µM
  IC50: > 10 µM
Second compound 3.16 µM
  IC50: > 10 µM
Second compound 10 µM
  IC50: > 10 µM
[1]
  viability, T/C: 113%
[2]
  viability, T/C: 106%
[3]
  viability, T/C: 103%
[4]
  viability, T/C: 114%
[5]
  viability, T/C: 115%
[6]
  viability, T/C: 118%
[7]
  viability, T/C: 117%
[8]
  viability, T/C: 114%
[9]
  viability, T/C: 111%
[10]
  viability, T/C: 103%
[11]
  viability, T/C: 112%
[12]
  viability, T/C: 109%
[13]
  viability, T/C: 97.5%
[14]
  viability, T/C: 97.4%
[15]
  viability, T/C: 92.4%
[16]
  viability, T/C: 98.5%
[17]
  viability, T/C: 110%
[18]
  viability, T/C: 106%
[19]
  viability, T/C: 95.1%
[20]
  viability, T/C: 90.8%
[21]
  viability, T/C: 93.6%
[22]
  viability, T/C: 87.5%
[23]
  viability, T/C: 99.3%
[24]
  viability, T/C: 87.3%
[25]
  viability, T/C: 76.4%
[26]
  viability, T/C: 73.6%
[27]
  viability, T/C: 73.2%
[28]
  viability, T/C: 72.7%
[29]
  viability, T/C: 82.5%
[30]
  viability, T/C: 79.5%
[31]
  viability, T/C: 69.5%
[32]
  viability, T/C: 69.5%
[33]
  viability, T/C: 61.8%
[34]
  viability, T/C: 66.5%
[35]
  viability, T/C: 76.7%
[36]
  viability, T/C: 75.8%

## CC1COCCN1c1cc(-c2ccnn2C)c2ccnc(-c3ccn[nH]3)c2n1 (stereo not given) + Cc1cnc(CNC(=O)c2c(=O)c3ccc(N4CCCN(C)CC4)nc3n3c2sc2ccccc23)cn1
Second compound 0.0316 µM
  IC50: 2.66 µM
Second compound 0.1 µM
  IC50: 5.19 µM
Second compound 0.316 µM
  IC50: 4.11 µM
Second compound 1 µM
  IC50: 1.59 µM
Second compound 3.16 µM
  IC50: 0.609 µM
Second compound 10 µM
  IC50: 0.728 µM
[1]
  viability, T/C: 86.4%
[2]
  viability, T/C: 81.4%
[3]
  viability, T/C: 76.3%
[4]
  viability, T/C: 54.9%
[5]
  viability, T/C: 52.8%
[6]
  viability, T/C: 38.5%
[7]
  viability, T/C: 99.4%
[8]
  viability, T/C: 81.1%
[9]
  viability, T/C: 82.4%
[10]
  viability, T/C: 73.5%
[11]
  viability, T/C: 54%
[12]
  viability, T/C: 41.3%
[13]
  viability, T/C: 94.2%
[14]
  viability, T/C: 90.3%
[15]
  viability, T/C: 72.9%
[16]
  viability, T/C: 62.2%
[17]
  viability, T/C: 55.2%
[18]
  viability, T/C: 41.3%
[19]
  viability, T/C: 82.4%
[20]
  viability, T/C: 74.1%
[21]
  viability, T/C: 69.3%
[22]
  viability, T/C: 57.2%
[23]
  viability, T/C: 39.8%
[24]
  viability, T/C: 33.9%
[25]
  viability, T/C: 64.8%
[26]
  viability, T/C: 65.7%
[27]
  viability, T/C: 58.4%
[28]
  viability, T/C: 42.7%
[29]
  viability, T/C: 37.3%
[30]
  viability, T/C: 30.9%
[31]
  viability, T/C: 65.1%
[32]
  viability, T/C: 61.6%
[33]
  viability, T/C: 57.3%
[34]
  viability, T/C: 48.2%
[35]
  viability, T/C: 30.6%
[36]
  viability, T/C: 25.2%

## CC1COCCN1c1cc(C2(O)CC3CCC(C2)O3)c2cnn(-c3ccn[nH]3)c2n1 (stereo not given) + CN(C)c1ccc(Nc2c3ccc(NC(=O)CCN4CCCC4)cc3nc3cc(NC(=O)CCN4CCCC4)ccc23)cc1
Second compound 0.0316 µM
  IC50: 1.48 µM
Second compound 0.1 µM
  IC50: 1.4 µM
Second compound 0.316 µM
  IC50: 0.495 µM
Second compound 1 µM
  IC50: 0.88 µM
Second compound 3.16 µM
  IC50: 0.286 µM
Second compound 10 µM
  IC50: 0.449 µM
[1]
  viability, T/C: 89%
[2]
  viability, T/C: 74%
[3]
  viability, T/C: 69.3%
[4]
  viability, T/C: 53.1%
[5]
  viability, T/C: 41.6%
[6]
  viability, T/C: 33.9%
[7]
  viability, T/C: 95.4%
[8]
  viability, T/C: 83.8%
[9]
  viability, T/C: 61.5%
[10]
  viability, T/C: 55.8%
[11]
  viability, T/C: 42.8%
[12]
  viability, T/C: 36.8%
[13]
  viability, T/C: 80.9%
[14]
  viability, T/C: 83.5%
[15]
  viability, T/C: 55.4%
[16]
  viability, T/C: 46.4%
[17]
  viability, T/C: 44.9%
[18]
  viability, T/C: 33%
[19]
  viability, T/C: 74.9%
[20]
  viability, T/C: 62.5%
[21]
  viability, T/C: 65.1%
[22]
  viability, T/C: 45.6%
[23]
  viability, T/C: 39.9%
[24]
  viability, T/C: 32.6%
[25]
  viability, T/C: 80.9%
[26]
  viability, T/C: 65.4%
[27]
  viability, T/C: 47.6%
[28]
  viability, T/C: 38.4%
[29]
  viability, T/C: 33.4%
[30]
  viability, T/C: 29.5%
[31]
  viability, T/C: 70.2%
[32]
  viability, T/C: 66.7%
[33]
  viability, T/C: 49.6%
[34]
  viability, T/C: 42.4%
[35]
  viability, T/C: 35.6%
[36]
  viability, T/C: 23.3%
